Data published in paper PMC4050187 (FEBS Open Bio, 2014).

Target: T1, Cj0511His (Campylobacter jejuni, UniProt Q0PB04)
T1 sequence (Q0PB04 36-444): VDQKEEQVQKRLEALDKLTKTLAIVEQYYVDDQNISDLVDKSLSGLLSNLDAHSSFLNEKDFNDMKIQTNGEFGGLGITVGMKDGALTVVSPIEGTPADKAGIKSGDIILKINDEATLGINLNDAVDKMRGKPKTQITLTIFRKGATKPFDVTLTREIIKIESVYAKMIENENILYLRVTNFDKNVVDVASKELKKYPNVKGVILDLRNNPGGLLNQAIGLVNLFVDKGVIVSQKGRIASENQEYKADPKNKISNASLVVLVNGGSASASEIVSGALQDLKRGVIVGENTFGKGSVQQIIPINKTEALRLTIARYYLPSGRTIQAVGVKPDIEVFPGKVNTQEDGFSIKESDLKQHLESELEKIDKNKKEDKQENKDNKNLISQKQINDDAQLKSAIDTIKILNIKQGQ
Experiment: colorimetric protease screening kit, absorbance at […] nm
Format: biochemical
Settings: 1 mM inhibitor, 37 °C, 3 h, 0.25 μg protein in 50 μl

Q: With NCCc1ccc(S(=O)(=O)F)cc1 [AEBSF] as the molecule, how does the “reduction in activity at 1 mM” value read?
A: reduction in activity in the presence of antipain, aprotin, AEBSF and PMSF inhibitors
